Reference: the supplement of paper PMC8882468
± gives the standard deviation of the averaged measurements.

Experiments:
Experiment in all cases: CTG-3D luminescence at 96 h relative to day-0 seeding control (ratio to day 0); higher = more growth / less cytotoxicity
[1] = system: HCI-010 (organoid from a breast cancer xenograft)
Description: (§1)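 PDxO 3D drug screen (set 2), 8-point dose, 96 h; CTG-3D luminescence normalised to day-0 seeding control (mean of 4 wells each).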

[2] = system: HCI-001 (organoid from a triple-negative breast cancer xenograft)
Description: as §1

[3] = system: HCI-002 (organoid from a triple-negative breast cancer xenograft)
Description: as §1

[4] = system: HCI-005.E2 (organoid from a breast cancer xenograft with a HER2-positive history)
Description: as §1

CC/C(=C(\c1ccc(O)cc1)c1ccc(OCCN(C)C)cc1)c1ccccc1 [4-hydroxytamoxifen]
CTG-3D luminescence at 96 h
Conditions	12.5 pM	0.00025 µM	0.005 µM	0.1 µM	1 µM	10 µM	100 µM	625 fM
[1], days in culture: 79	2.04	1.84	1.96	1.93	1.9	1.48	0.00321	2.05
[1], days in culture: 86	1.97	2.48	2.21	2.15	2.19	1.35	0.0109	2.16
[1], days in culture: 102	1.1	1.13	1.07	1.2	1.23	0.95	0.00505	0.88
[1], days in culture: 164	1.4	1.46	1.45	1.45	1.38	0.899	0.00677	1.23
[2], days in culture: 365	2.24	2.14	2.59	3.06	2.55	1.86	0.0145	1.46
[2], days in culture: 397	1.66	1.84	2.19	2.62	1.93	1.21	0.00832	1.25
[2], days in culture: 401	1.75	1.39	1.52	1.38	1.26	1.52	0.00247	1.47
[3], days in culture: 127	2.42	2.73	2.8	2.99	2.6	2.18	0.0155	2.75
[3], days in culture: 155	4.99	5.16	5.23	5.86	4.71	4.14	0.0228	4.09
[3], days in culture: 168	3.07	2.97	4.33	2.96	3.6	0.901	0.00411	4.11

[4]
Conditions	CTG-3D luminescence at 96 h
12.5 pM	1.68 ± 0.34
0.00025 µM	1.99 ± 0.4
0.005 µM	2.22 ± 0.4
0.1 µM	2.35 ± 0.56
1 µM	2.26 ± 0.97
10 µM	2.01 ± 0.43
100 µM	0.0139 ± 0.0031
625 fM	2.45 ± 0.34
